Data from patent US4550186A, “Binuclear copper (II) carboxylates formed from amine-carboxyboranes” (Duke University, priority 1983, dated 1985).

Test system: Cholesterol Side Chain Oxidation
Assay: In vitro liver enzyme study: cholesterol side chain oxidation
Assay type: biochemical, mouse
Description: In vitro enzymatic studies were determined using 10% homogenates of CF1 male mouse liver with 50-200 μM of test drugs. In vivo enzymatic studies were determined using 10% homogenates of liver from CF1 male mice obtained after administering the agents for 16 days at a dose ranging from 2.5-20 mg/kg/day intraperitoneally. The liver homogenates for both in vitro and in vivo studies were prepared in 0.25M sucrose and 0.001M (ethylenedinitrilo)tetraacetic acid. Acetyl coenzyme A synthetase and adenosine triphosphate dependent citrate lyase activities were determined spectrophotometrically at 540 nm as the hydroxylamate of acetyl coenzyme A formed after 30 min at 37° C. Mitochondrial citrate exchange was determined by the procedure of Robinson et al [Eur. J. Biochem., 216, 63 (1970)] using ^14 C-sodium bicarbonate (41 mCi/mmol) incorporated into mitochondrial ^14 C-citrate after isolating rat mitochondria (9000 g×10 min) from the homogenates. The exchanges of the ^14 C-citrate were determined after incubating the mitochondrial fraction which was loaded with labeled citrate and test drugs for 10 min. Then the radioactivity was measured in the mitochondrial and supernantant fractions in scintillation fluid and expressed as a percentage. […] Acyl transferase activity was determined with glycerol-3phosphate [L-2-^3 H(N)] […] HCl and counted. […]

## {Cu[(CH3)3 N.BH2 CO2 ]2.(CH3)3 N.BH2 COOH} [Compound I]
In vitro CF1 liver, 100 μM
  Cholesterol Side Chain Oxidation: 152 ± 7 Percent Control
In vitro, in the presence of drug
  degradation of cholesterol by oxidation of the side chain accelerated: 52%
